Here are results for seven compounds from US20040086891A1, “Dehydrogenase oligomeric modulators” (priority 1998, published 2004).

Experiment [1] addresses T1, GAPDH (Homo sapiens, UniProt P04406). Particulars: cited from earlier work.
Experiment [2] deals with NG108-15 cells. Particulars: cited from earlier work.
Experiment [3] deals with fibroblasts. Kind of experiment: GAPDH nuclear translocation in fibroblasts treated with NAD+. The class given is cell-based.
The target in experiment [4] is T1, GAPDH. Kind of experiment: Release of GAPDH from AU-rich RNA and glycolytic activity. The class given is biochemical. The text has this:
(§1) As well as the nuclear translocation, GAPDH levels increase rapidly in the early phases of apoptosis. […] At least three molecules associated with toxin-induced neuronal apoptosis—nitric oxide, superoxide radical and peroxynitrite—have the capacity to free GAPDH from AU-rich RNA (Beckman and Koppenol, 1996). Nitric oxide modifies the structure of GAPDH and appears to free it from AU-rich RNA (Brune and Lapetina, 1995; Brune and Lapetina, 1996; Itoga et al., 1997; McDonald and Moss, 1994). Oxygen free radicals enhance the binding of NAD^+ to GAPDH (Marin et al., 1995). If, in fact, GAPDH translocation to the nucleus does initiate or facilitate apoptosis, then ROS and NO may induce apoptosis through GAPDH.

Experiment [5] relates to COS and Hek cells. Kind of experiment: GAPDH-GFP fusion protein localization in living COS and Hek cells (LCSM). Type of experiment: cell-based. The note with it: first two hours after exposure. From the text:
GAPDH cDNA was cloned from rat brain using oligonucleotides designed to the 5′- and 3′-ends of the coding region of rat GAPDH with PCR. The cDNA was used to produce a GAPDH-green fluorescent protein (GFP) construct by adding a 3′ oligo (Gly)s to the C-terminus of GAPDH followed by a BamHI site to allow subcloning, in frame, into pEGFP-1 (Clontech). The resulting construct contains GAPDH followed by (Gly)5 and enhanced GFP. The insert was subcloned into the Hindlil-Notl sites of pcDNA3. The GAPDH-GFP construct has been transiently transfected into COS1 cells and stably transfected into HEK 293 cells.
Apoptosis was induced in the living COS and Hek cells maintained in a physiological chamber on LCSM. […] These experiments established that GAPDH nuclear translocation occurs dynamically during the very early stages of apoptosis and indicate that GAPDLH participates in the initiation phase of apoptosis.

Experiment [6] concerns partially differentiated PC12 cells or fibroblasts. Description: Apoptosis and GAPDH nuclear translocation after NO donor treatment. The class given is cell-based. From the text: (§2) The subcellular localization of GAPDH in PC12 cells entering apoptosis using immunocytochemistry and LCSM has been studied.
The subject of experiment [7] is GAPDH. Description: GAPDH protein levels in early apoptosis after trophic withdrawal. The class given is cell-based. The note with it: increase begins 1.5 to 2.0 hours after trophic withdrawal.
Excerpt: as §1

Experiment [8] addresses T1, GAPDH. Kind of experiment: Photoaffinity binding and BODIPY-labelled CGP3466 protein binding study. Particulars: photoaffinity binding techniques, BODIPY chromogen. The text has this: It was also shown that there was an increase in GAPDH levels found in early apoptosis. Photoaffinity binding techniques and a BODIPY chromogen attached to dibenzo[bf]oxepin-10-ylmethyl-prop-2-ynyl-amine (CGP3466), were used to study the protein and subcellular binding of (−)-desmethyldeprenyl (DES) and CGP3466.

Experiment [9] deals with PC12 cells. Description: Subcellular localization of GAPDH in PC12 cells entering apoptosis (immunocytochemistry, LCSM). Type of experiment: cell-based. The note with it: early apoptosis, 3-12 hours after serum and NGF withdrawal.
Excerpt: as §2

In experiment [10] the target is T1, GAPDH. Kind of experiment: Size exclusion chromatography of the oligomeric state of GAPDH. The note with it: for oligomeric state of GAPDH bound to poly-U RNA: size exclusion chromatography, GAPDH largely tetrameric without compound; for oligomeric state of GAPDH in the presence of SDS: sodium dodecyl sulfate added, untreated protein becomes monomeric. The class given is biochemical. As for the experimental part:
A dehydrogenase oligomeric modulator is identified using size exclusion chromatographic (SEC) techniques. A test compound is tested for its ability to prevent tetramer formation of GAPDH and compounds capable of preventing or inhibiting such formation are identified as DOMs. SEC is used to determine if potential compounds affect the oligomeric state of GAPDH (or any oligomeric protein) when contacted with GAPDH under conditions which promote oligomer formation. This method can be further refined and sped up (i.e., faster data collection) by using SEC-high performance liquid chromatographic (SEC-HPLC) methods. An example is set forth below.
A column was made using a disposable 1 cm diameter column (BIORAD). The chosen matrix for the column was Sephacryl H-300 (PHARMACIA). The column was poured by mixing the beads (SEPHACRYL) in a buffer and layering into the column until the bed was about 12 cm long. The buffer used was 50 mM TRIS—HCl, pH 8.0. The column was then washed with the same buffer for 10 column volumes.
A selection.of protein standards of known molecular weight was run through the column.
Once the column is calibrated, the molecular weight of the eluted fractions (in this case, GAPDH monomers, dimers and tetramers) may be determined.
Prior to moving the proteins to the column they are contacted with candidate compound and mixed at room temperature in, e.g., nanomolar concentrations under conditions known to those skilled in the art.
The mixture prepared above is then added to the column and eluted with 50 mM TRIS—HCl pH 8.0 buffer. 500 μl fractions of the eluent are collected. The optical density of the fractions is then determined, e.g., at 280 nm, and an elution profile prepared and analyzed to determine the extent of oligomerization.
GAPDH is a tetramer consisting of four identical monomers (FIG. 1). The tetramer exists in equilibrium between tetramers, dimers and monomers. This equilibrium strongly favors the tetrameric form. Upon tetramer formation, there is a channel present between the four monomers. […] As such, the ability of (−)-desmethyldeprenyl and CGP3466 to decrease GAPDH tetramer and increase GAPDH dimer in vitro identifies these compounds as oligomeric modulators of GAPDH.
(In general: In gel filtration, larger molecules generally elute earlier.)

For experiment [11], the target named is T1, GAPDH. Description: Antibody blocking experiment for drug binding in the GAPDH channel. The note with it: protein first treated with antibody, then drug. As to the method:
Antibody blocking experiments were conducted to confirm that CGP3466 bound GAPDH in the channel. In FIG. 2, GAPDH is shown in blue with the site for an antibody which was raised to a certain part of GAPDH is green.

“Also recorded” adds a separate entry of the source.

T1 sequence (P04406 whole entry, species assumed): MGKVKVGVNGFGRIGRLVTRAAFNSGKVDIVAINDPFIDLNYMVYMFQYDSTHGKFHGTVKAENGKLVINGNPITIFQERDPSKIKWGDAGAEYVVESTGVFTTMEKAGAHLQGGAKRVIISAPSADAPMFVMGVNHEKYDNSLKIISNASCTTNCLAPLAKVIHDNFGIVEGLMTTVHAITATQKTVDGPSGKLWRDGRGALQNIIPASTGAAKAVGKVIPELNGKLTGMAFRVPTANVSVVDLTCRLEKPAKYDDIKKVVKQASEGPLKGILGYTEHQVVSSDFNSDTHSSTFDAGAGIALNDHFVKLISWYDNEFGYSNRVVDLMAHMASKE

Take `CC(C)[C@H]1CC[C@@]2(CO2)[C@H]2C(=O)OCC(C(=O)O)=C[C@H]12` [Koningic acid]: in experiment [1], the GAPDH glycolytic function result is reported as “inhibits GAPDH glycolytic function”. In addition, the induction of apoptosis entry in experiment [2] is recorded as “induces apoptosis”.

As to `NC(=O)c1ccc[n+]([C@@H]2O[C@H](COP(=O)([O-])OP(=O)(O)OC[C@H]3O[C@@H](n4cnc5c(N)ncnc54)[C@H](O)[C@@H]3O)[C@@H](O)[C@H]2O)c1` [NAD^+], the “nuclear translocation of GAPDH” value in experiment [3] was “induced the dense translocation of GAPDH to the nucleus”. In experiment [4], the GAPDH glycolytic activity entry is “increases the enzyme's glycolytic activity” and the “release of GAPDH from AU-rich RNA” value is “releases GAPDH from AU-rich RNA”.

Take `O=C([O-])c1c(Cl)c(Cl)c(Cl)c(Cl)c1-c1c2cc(I)c(=O)c(I)c-2oc2c(I)c([O-])c(I)cc12.[Na+].[Na+]` [Rose Bengal]: in experiment [5], the “localization of GAPDH-GFP fusion protein” value is listed as “concentrate in the nucleus of a proportion of the cells”.

As for `CC(=O)N[C@@H](C(=O)O)C(C)(C)SN=O` (racemic) [SNAP], the induction of apoptosis result in [6] is listed as “induced apoptosis”.

Regarding `CC(=O)N[C@@H](CS)C(=O)O` [NAC, N-acetyl cysteine], the “increase in GAPDH protein levels in early apoptosis” value (shortened to “increase in GAPDH protein levels”) in experiment [7] was “prevent the increase”.

As for `C#CCNCC1=Cc2ccccc2Oc2ccccc21` [CGP3466, dibenzo[bf]oxepin-10-ylmethyl-prop-2-ynyl-amine], in experiment [8], the “binding to GAPDH” value is “bind to GAPDH”; the proteins bound entry is “tubulin, actin, synapsin and GAPDH”. Moreover, the “nuclear translocation (relocation) of GAPDH” value in [9] is recorded as “prevent the nuclear relocation of GAPDH; also recorded: blocked the nuclear translocation”. In addition, the “increase in GAPDH protein levels” value in [7] is listed as “prevent the increase”. Also, in experiment [10], the “effect on the GAPDH tetramer” value is on record as “disrupt the tetramer forming dimers”, the “oligomeric state of GAPDH bound to poly-U RNA” value is recorded as “converted to a dimer” and the “oligomeric state of GAPDH in the presence of SDS” value (“oligomeric state … of SDS” below) is “convert it to a dimer”. For the same compound, the “oligomeric state … of SDS” value in experiment [10] (listed as CGP 3466) is recorded as “remains dimeric”. Also, the “drug binding to GAPDH after pre-treatment with antibody to the channel site” value in experiment [11] is listed as “no binding”.

For `C#CCNC(C)Cc1ccccc1` (single isomer, unassigned; (-)) [(−)-desmethyldeprenyl], the “binding to GAPDH” value in [8] is “bind to GAPDH”. Further, the “nuclear translocation (relocation) of GAPDH” value in [9] was “prevent the nuclear relocation of GAPDH”. In [9] (listed as DES), the “nuclear translocation (relocation) of GAPDH” value is “blocked the nuclear translocation”. The “increase in GAPDH protein levels” value in experiment [7] is “prevent the increase”. In addition, in experiment [10], the “effect on the GAPDH tetramer” value is “disrupt the tetramer forming dimers”, the “oligomeric state of GAPDH bound to poly-U RNA” value is given as “converted to a dimer” and the “oligomeric state … of SDS” value is given as “remains dimeric”. In addition, the “oligomeric state … of SDS” value in experiment [10] (listed as DES) was “convert it to a dimer”.
